According to ChEMBL document CHEMBL1158146, “Oppositines A and B, sesquiterpene pyridine alkaloids from a Sri Lankan Pleurostylia opposita” (J Nat Prod, 2006):
Calls of active or inactive are those of the source. The rule behind the calls is not given here.

Tests used:
[1] = Cytotoxicity against human HCT 116 cells after 48 hrs by MTT assay; type: functional, cell-based; settings: HCT-116, 48 h
[2] = test system: Human immunodeficiency virus; test: Antiviral activity against HIV upto 10 ug/mL; type: functional, organism-based
[3] = target: Hypoxia-inducible factor 1-alpha (Homo sapiens) (UniProt Q16665); test: Inhibition of HIF1alpha
Chain of Hypoxia-inducible factor 1-alpha (Homo sapiens) (Q16665 whole entry, looked up): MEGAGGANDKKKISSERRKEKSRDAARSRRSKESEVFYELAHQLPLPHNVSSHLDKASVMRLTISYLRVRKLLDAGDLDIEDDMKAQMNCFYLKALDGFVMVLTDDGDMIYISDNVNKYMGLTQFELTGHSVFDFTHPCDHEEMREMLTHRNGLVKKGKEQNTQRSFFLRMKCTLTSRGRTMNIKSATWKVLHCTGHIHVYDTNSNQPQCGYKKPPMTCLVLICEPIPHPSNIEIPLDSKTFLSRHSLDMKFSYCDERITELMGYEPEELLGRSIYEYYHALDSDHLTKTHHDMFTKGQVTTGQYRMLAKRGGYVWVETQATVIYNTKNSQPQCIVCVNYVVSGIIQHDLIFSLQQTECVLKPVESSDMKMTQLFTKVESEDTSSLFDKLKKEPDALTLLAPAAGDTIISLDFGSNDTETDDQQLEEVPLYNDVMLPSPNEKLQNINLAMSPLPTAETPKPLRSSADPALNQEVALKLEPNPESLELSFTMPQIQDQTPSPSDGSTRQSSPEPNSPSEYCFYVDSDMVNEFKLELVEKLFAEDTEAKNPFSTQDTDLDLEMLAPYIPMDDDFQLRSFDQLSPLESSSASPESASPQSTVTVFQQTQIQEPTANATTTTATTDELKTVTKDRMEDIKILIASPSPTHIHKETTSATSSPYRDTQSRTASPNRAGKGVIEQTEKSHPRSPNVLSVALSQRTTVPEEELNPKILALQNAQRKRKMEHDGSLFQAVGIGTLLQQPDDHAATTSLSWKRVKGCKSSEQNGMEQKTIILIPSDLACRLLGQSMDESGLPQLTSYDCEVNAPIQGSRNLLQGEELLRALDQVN

Row | Activity [3] | Structure (SMILES) | EC50 [1] | Activity [2]
1 | inactive | CCC1CCC(=O)O[C@H]2[C@H](OC(C)=O)[C@H](OC(=O)c3ccccc3)[C@@]3(COC(C)=O)[C@H](OC(C)=O)[C@H](OC(C)=O)[C@@H]4[C@@H](OC(C)=O)[C@]3(O[C@]4(C)COC(=O)c3cccnc31)[C@@H]2C (stereo partly specified) [OPPOSITINE B] | 26 µM | inactive
2 | inactive | CCC1CCC(=O)O[C@H]2[C@H](OC(C)=O)[C@H](OC(=O)c3ccccc3)[C@@]3(COC(C)=O)[C@H](OC(C)=O)[C@H](OC(C)=O)[C@@H]4[C@@H](OC(C)=O)[C@]3(O[C@]4(C)COC(=O)c3cccnc31)[C@@]2(C)O (stereo partly specified) [OPPOSITINE A] | 27 µM | inactive
